Measurements reported in patent publication US20220323443A1, “COMBINATION THERAPY FOR CANCER TREATMENT” (TAKEDA PHARMACEUTICAL COMPANY LIMITED, priority 2019, published 2022).
Where a name gives a salt, the structure may show the parent alone. Read-outs that look alike come from different tables or passages of the source.

What was measured:
[1] = tested on: A549 cancer cells; test: In vitro combination study with Compound 1, Cell Titer-Glo (ATP) cell viability, 72 h; format: cell-based;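 also: Ten-by-ten dose matrices of the two agents in duplicate, compounds added 16 h post-plating, activity relative to DMSO vehicle wells, call reflects synergy evaluation from luminescence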
Procedure: (§2) Each combination pair was evaluated in an individual 384-well plate which contained variable doses of both compounds as single agents, as well as two, ten-by-ten matrices (in duplicate) that contained mixtures of the two test compounds. In brief, compounds were added to the cell test plates 16 hours after cell plating and then assessed for viability 72 hours later. Continuous cultures of tumor cells were maintained under standard cell culturing conditions (i.e. in a humidified chamber set at 37° C., containing atmosphere 5% carbon dioxide). […] Seventy-two hours after compound addition, ATP levels were measured to assess cell viability. Plating densities were chosen to ensure optimal linear growth over the 72 hour period.
(§3) Compound dilution and compound delivery to the assay plates were done on HighRes Robotic System (HighRes Biosolutions, Woburn, Mass., USA) with Echo™ Liquid Handler (Labcyte, Sunnyvale, Calif., USA). […] Next, these were used for compound transfer into cell assay plates. All wells were back-filled to give a constant percentage of DMSO.
(§4) The final DMSO concentration was held constant in all wells across the plate and was maintained at less than 0.5%. […] Cells treated with vehicle (DMSO) in two rows, or single compound serial dilutions in one plate columns/row served as the untreated control and single compound controls, respectively.
(§5) Compound activity in A549, COLO205, H460, HCT116, SW48, SW620 cancer cell lines was assessed using Cell Titer-Glo® (Promega [Madison, Wis., USA]). After 72 hours incubation, the plates were treated as per package insert protocol for the Promega Luminescence ATP Detection Systems. Briefly, 25 μL of cell lysis/substrate solution (provided in kit form) was added to each well and the plate was incubated at room temperature for 10 minutes. Luminescence was measured using a PHERAstar multi-label counter (BMG Labtech [Ortenberg, Germany]) or LEADseeker (GE Healthcare Life Sciences [Piscataway, N.J., USA]).
(§6) Numerical luminescence values were analyzed to generate EC50 curves and evaluate synergy. Raw Data reader files were uploaded along with automation workfiles that defined the plate and well contents. Percent activities were calculated for each well versus plate controls.
(§7) Each plate representing a single drug combination was analyzed separately. First, the viability measurements were normalized by scaling the data so that the median of the negative controls was 0 and the median of the positive controls was 100.
(§8) For the combination analysis, a response surface model was used to describe the relationship between the normalized viability and the drug concentrations. The data were fit to the model by minimizing the residual sum of squares. Based on the fitted response surface, plots of constant viability, called isobolograms, were produced.
(§9) The Combination Index and Nonlinear Blending were used as measures of drug synergy. To calculate Combination Index the 50% isobologram (which is the dose contour that has 50% viability) was used. […] A standard procedure was created to produce a call in order to characterize the viability effects for each combination (synergy, additivity, subadditivity, or antagonism). If the Combination Index existed then these measures were used to make the call.

[2] = tested on: COLO205 cancer cells; test: as above; format: cell-based, human;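 also: Ten-by-ten dose matrices of both agents in duplicate plus single-agent dilutions, luminescent ATP read-out, percent activity per well relative to DMSO vehicle wells, synergy call from these matrices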
Procedure: as §2, §3, §4, §5, §6, §7, §8, §9

[3] = tested on: H460 cancer cells; test: as above; format: cell-based;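 also: Ten-by-ten dose matrices of both drugs alongside single-agent dilutions, luminescence read 72 hours after compound addition, percent activity per well versus vehicle (DMSO) plate controls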
[4] = tested on: HCT116 cancer cells; test: as above; format: cell-based;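 also: combination call from 10×10 dose matrices in duplicate, graded by synergy, with percent activity per well relative to DMSO vehicle controls on the same plate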
Procedure: as §2, §3, §4, §5, §6, §7, §8, §9

[5] = tested on: SW48 cancer cells; test: as above; format: cell-based
Procedure: as §2
Compound dilution and compound delivery to the assay plates were done on HighRes Robotic System (HighRes Biosolutions, Woburn, Mass., USA) with Echo™ Liquid Handler (Labcyte, Sunnyvale, Calif., USA). First, 384-well low dead volume (LDV) plates containing DMSO (Appendix B) and 10 mM compound stock solutions were used to create the required intermediate compound dilution plates. Next, these were used for compound transfer into cell assay plates. All wells were back-filled to give a constant percentage of DMSO.
as §4, §5, §6, §7, §8, §9

[6] = tested on: SW620 cancer cells; test: as above; format: cell-based;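 also: Ten-by-ten dose matrices of both drugs in 384-well plates, luminescent ATP read-out, synergy evaluated against single-agent and DMSO vehicle controls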
Procedure: as §2, §3, §4, §5, §6, §7, §8, §9

[7] = tested on: CALU6 (Lung); test: In vitro combination study for selected compounds, additional cell lines; format: cell-based; conditions: drug combined with Compound 1
Procedure: (§1) In vitro anti-proliferative effects of selected compounds were tested in additional cell lines, including ovarian cancer (SKOV3) and pancreatic cancer (MIA-PACA-2) cell lines.

[8] = tested on: H-1650 (Lung); test: as above; format: cell-based; conditions: drug combined with Compound 1
Procedure: as §1

[9] = Table 5 drug combined with Compound 1, 72 h
[10] = DNA damaging agent combined with Compound 1, 72 h

Compound | Call, anti-proliferative effect of combination with Compound 1, A549 [1, 9] | Call, anti-proliferative effect of combination with Compound 1, COLO205 [2, 9] | Call, anti-proliferative effect of combination with Compound 1, H460 [3, 9] | Call, anti-proliferative effect of combination with Compound 1, HCT116 [4, 9] | Call, anti-proliferative effect of combination with Compound 1, SW620 [6, 9] | Call, anti-proliferative effect of combination with Compound 1, H460 [3, 10] | Call, anti-proliferative effect of combination with Compound 1, HCT116 [4, 10] | Call, anti-proliferative effect of combination with Compound 1, SW48 [5, 10] | Call, anti-proliferative effect of combination with Compound 1, SW620 [6, 10] | other results
Nc1ncn([C@@H]2O[C@H](CO)[C@@H](O)[C@H]2O)c(=O)n1 [Azacitidine] | Additivity (0.7 to 1.3) | Additivity (0.7 to 1.3) | Additivity (0.7 to 1.3) | Additivity (0.7 to 1.3) | Additivity (0.7 to 1.3) |  |  |  |  | Call, anti-proliferative effect of combination with Compound 1, SW48 [5, 9]: Additivity (0.7 to 1.3)
Cn1c(=O)n(-c2ccc(C(C)(C)C#N)cc2)c2c3cc(-c4cnc5ccccc5c4)ccc3ncc21 [BEZ-235] | Additivity (0.7 to 1.3) | Additivity (0.7 to 1.3) | Additivity (0.7 to 1.3) | Additivity (0.7 to 1.3) | Subadditivity (1.3 to 2) |  |  |  |  | Call, anti-proliferative effect of combination with Compound 1, SW48 [5, 9]: Antagonism (>2)
O=C(O)CCCc1ccc(N(CCCl)CCCl)cc1 [Chlorambucil] |  |  |  |  |  | Additivity (0.7 to 1.3) | Additivity (0.7 to 1.3) | Additivity (0.7 to 1.3) |  | Call, anti-proliferative effect of combination with Compound 1, A549 [1]: Additivity (key: Inconclusive: Any; Additivity: 0.7 to 1.3; Synergy: 0 to 0.7; Subadditivity: 1.3 to 2; Antagonism: >2)
COc1cccc2c1C(=O)c1c(O)c3c(c(O)c1C2=O)C[C@@](O)(C(C)=O)C[C@@H]3O[C@H]1C[C@H](N)[C@H](O)[C@H](C)O1 [Daunorubicin] |  |  |  |  |  |  |  |  |  | Call, anti-proliferative effect of combination with Compound 1, A549 [1]: Additivity (key: Inconclusive: Any; Additivity: 0.7 to 1.3; Synergy: 0 to 0.7; Subadditivity: 1.3 to 2; Antagonism: >2); Call, anti-proliferative effect of combination with Compound 1, COLO205 [2]: Additivity (key: Inconclusive: Any; Additivity: 0.7 to 1.3; Synergy: 0 to 0.7; Subadditivity: 1.3 to 2; Antagonism: >2); Call, anti-proliferative effect of combination with Compound 1, H460 [3]: Additivity (key: Inconclusive: Any; Additivity: 0.7 to 1.3; Synergy: 0 to 0.7; Subadditivity: 1.3 to 2; Antagonism: >2); Call, anti-proliferative effect of combination with Compound 1, HCT116 [4]: Synergy (key: Inconclusive: Any; Additivity: 0.7 to 1.3; Synergy: 0 to 0.7; Subadditivity: 1.3 to 2; Antagonism: >2); Call, anti-proliferative effect of combination with Compound 1, SW48 [5]: Additivity (key: Inconclusive: Any; Additivity: 0.7 to 1.3; Synergy: 0 to 0.7; Subadditivity: 1.3 to 2; Antagonism: >2); Call, anti-proliferative effect of combination with Compound 1, SW620 [6]: Synergy (key: Inconclusive: Any; Additivity: 0.7 to 1.3; Synergy: 0 to 0.7; Subadditivity: 1.3 to 2; Antagonism: >2)
Nc1ncn([C@H]2C[C@H](O)[C@@H](CO)O2)c(=O)n1 [Decitabine] |  |  |  |  |  | Synergy (0 to 0.7) | Synergy (0 to 0.7) | Additivity (0.7 to 1.3) | Additivity (0.7 to 1.3) | 
Nc1ccccc1NC(=O)c1ccc(CNC(=O)OCc2cccnc2)cc1 [Entinostat] | Synergy (0 to 0.7) | Subadditivity (1.3 to 2) | Synergy (0 to 0.7) | Additivity (0.7 to 1.3) | Synergy (0 to 0.7) |  |  |  |  | Call, anti-proliferative effect of combination with Compound 1, SW48 [5, 9]: Subadditivity (1.3 to 2)
COc1cc([C@@H]2c3cc4c(cc3[C@@H](O[C@@H]3O[C@@H]5CO[C@@H](C)O[C@H]5[C@H](O)[C@H]3O)[C@H]3COC(=O)[C@H]23)OCO4)cc(OC)c1O [Etoposide] | Synergy (0 to 0.7) | Synergy (0 to 0.7) | Synergy (0 to 0.7) | Synergy (0 to 0.7) | Synergy (0 to 0.7) |  |  |  |  | Call, anti-proliferative effect of combination with Compound 1, SW48 [5, 9]: Synergy (0 to 0.7)
N[C@@H](Cc1ccc(N(CCCl)CCCl)cc1)C(=O)O [Melphalan] |  |  |  |  |  |  | Synergy (0 to 0.7) | Additivity (0.7 to 1.3) | Synergy (0 to 0.7) | Call, anti-proliferative effect of combination with Compound 1, A549 [1]: Synergy (key: Inconclusive: Any; Additivity: 0.7 to 1.3; Synergy: 0 to 0.7; Subadditivity: 1.3 to 2; Antagonism: >2)
CO[C@@]12[C@H](COC(N)=O)C3=C(C(=O)C(C)=C(N)C3=O)N1C[C@@H]1N[C@@H]12 [Mitomycin C] |  |  |  |  |  | Synergy (0 to 0.7) | Synergy (0 to 0.7) | Synergy (0 to 0.7) | Synergy (0 to 0.7) | Call, anti-proliferative effect of combination with Compound 1, A549 [1, 10]: Synergy (0 to 0.7); Call, anti-proliferative effect of combination with Compound 1, COLO205 [2, 10]: Subadditivity (1.3 to 2)
O=C1c2c(O)ccc(O)c2C(=O)c2c(NCCNCCO)ccc(NCCNCCO)c21 [Mitoxantrone hydrochloride] |  |  |  |  |  | Synergy (0 to 0.7) | Synergy (0 to 0.7) | Additivity (0.7 to 1.3) | Synergy (0 to 0.7) | Call, anti-proliferative effect of combination with Compound 1, A549 [1, 10]: Synergy (0 to 0.7); Call, anti-proliferative effect of combination with Compound 1, COLO205 [2, 10]: Synergy (0 to 0.7)
COC1=CC(c2cc3ccccc3[nH]2)=N/C1=C\c1[nH]c(C)cc1C [Obatoclax] | Additivity (0.7 to 1.3) | Additivity (0.7 to 1.3) | Synergy (0 to 0.7) | Additivity (0.7 to 1.3) | Synergy (0 to 0.7) |  |  |  |  | Call, anti-proliferative effect of combination with Compound 1, SW48 [5, 9]: Additivity (0.7 to 1.3)
CC(=O)O[C@H]1C(=O)[C@@]2(C)[C@H]([C@H](OC(=O)c3ccccc3)[C@]3(O)C[C@H](OC(=O)[C@H](O)[C@@H](NC(=O)c4ccccc4)c4ccccc4)C(C)=C1C3(C)C)[C@]1(OC(C)=O)CO[C@@H]1C[C@@H]2O [Paclitaxel] |  |  |  |  |  |  |  |  |  | In vitro combination effect with Compound 1, Lung CALU6 [7]: Additive; In vitro combination effect with Compound 1, Lung H-1650 [8]: Antagonism
COc1cc([C@@H]2c3cc4c(cc3[C@@H](O[C@@H]3O[C@@H]5CO[C@@H](c6cccs6)O[C@H]5[C@H](O)[C@H]3O)[C@H]3COC(=O)[C@H]23)OCO4)cc(OC)c1O [Teniposide] |  |  |  |  |  | Synergy (0 to 0.7) | Synergy (0 to 0.7) | Synergy (0 to 0.7) | Synergy (0 to 0.7) | Call, anti-proliferative effect of combination with Compound 1, A549 [1, 10]: Synergy (0 to 0.7); Call, anti-proliferative effect of combination with Compound 1, COLO205 [2, 10]: Synergy (0 to 0.7)
C/C=C(/C)C(=O)O[C@H]1C(C)=C2[C@H]([C@@H]1OC(=O)CCCCCCC)[C@@](C)(OC(C)=O)C[C@H](OC(=O)CCC)[C@@]1(O)[C@H]2OC(=O)[C@@]1(C)O [Thapsigargin] | Additivity (0.7 to 1.3) | Additivity (0.7 to 1.3) | Additivity (0.7 to 1.3) | Additivity (0.7 to 1.3) | Additivity (0.7 to 1.3) |  |  |  |  | 
S=P(N1CC1)(N1CC1)N1CC1 [Thio-tepa] |  |  |  |  |  | Additivity (0.7 to 1.3) | Synergy (0 to 0.7) | Additivity (0.7 to 1.3) | Synergy (0 to 0.7) | Call, anti-proliferative effect of combination with Compound 1, A549 [1]: Additivity (key: Inconclusive: Any; Additivity: 0.7 to 1.3; Synergy: 0 to 0.7; Subadditivity: 1.3 to 2; Antagonism: >2)
CC[C@]1(O)C[C@H]2CN(CCc3c([nH]c4ccccc34)[C@@](C(=O)OC)(c3cc4c(cc3OC)N(C=O)[C@H]3[C@@](O)(C(=O)OC)[C@H](OC(C)=O)[C@]5(CC)C=CCN6CC[C@]43[C@@H]65)C2)C1 [Vincristine sulfate] | Subadditivity (1.3 to 2) | Additivity (0.7 to 1.3) | Additivity (0.7 to 1.3) | Additivity (0.7 to 1.3) | Subadditivity (1.3 to 2) |  |  |  |  | 
bleomycin |  |  |  |  |  |  |  |  |  | Call, anti-proliferative effect of combination with Compound 1, A549 [1]: Additivity (key: Inconclusive: Any; Additivity: 0.7 to 1.3; Synergy: 0 to 0.7; Subadditivity: 1.3 to 2; Antagonism: >2); Call, anti-proliferative effect of combination with Compound 1, COLO205 [2]: Synergy (key: Inconclusive: Any; Additivity: 0.7 to 1.3; Synergy: 0 to 0.7; Subadditivity: 1.3 to 2; Antagonism: >2); Call, anti-proliferative effect of combination with Compound 1, H460 [3]: Synergy (key: Inconclusive: Any; Additivity: 0.7 to 1.3; Synergy: 0 to 0.7; Subadditivity: 1.3 to 2; Antagonism: >2); Call, anti-proliferative effect of combination with Compound 1, HCT116 [4]: Synergy (key: Inconclusive: Any; Additivity: 0.7 to 1.3; Synergy: 0 to 0.7; Subadditivity: 1.3 to 2; Antagonism: >2); Call, anti-proliferative effect of combination with Compound 1, SW48 [5]: Additivity (key: Inconclusive: Any; Additivity: 0.7 to 1.3; Synergy: 0 to 0.7; Subadditivity: 1.3 to 2; Antagonism: >2); Call, anti-proliferative effect of combination with Compound 1, SW620 [6]: Additivity (key: Inconclusive: Any; Additivity: 0.7 to 1.3; Synergy: 0 to 0.7; Subadditivity: 1.3 to 2; Antagonism: >2)
